We go through three molecules from patent US4007179A, “Oxoindanylpropionic acids and process for the preparation thereof” (Sankyo Company Limited, priority 1975, dated 1977).

Common to all, as to format: in vivo
The nature of assay [1]: Antipyretic activity: TTG-induced fever test in guinea pigs. The note with it: Cavia porcellus, po, read-out: ID50 Antipyretic. The source says: Antipyretic activity Tested by TTG-induced fever test in guinea pigs [ modified methodof S. Kobayashi, H. Takagi; Jap.
Assay [2] is described as follows: Analgesic activity: thermal pain test in rats. The note with it: Rattus norvegicus, po, read-out: ID50 Analgesic.
Assay [3] is described as follows: Anti-inflammatory activity: carrageenin edema test in rats. The note with it: Rattus norvegicus, po, read-out: ID50 Anti-inflammatory. The source says:
Anti-inflammatory activity
Tested by carrageenin edema test in rats [C.
On the technique in general: The carrageenan paw model is a standard test of acute inflammation.

The mark [4] stands for this setting: TTG-induced fever test in guinea pigs.

Structures are written as SMILES.

Consider `CCC1Cc2ccc(C(C)C(=O)O)cc2C1` (stereo not drawn) [2-(2-Ethylindan-5-yl)propionic acid], for which the ED50 came to 1.7 mg/kg in assay [1] (setting [4]), 10.5 mg/kg in assay [2] (thermal pain test in rats) and 10.3 mg/kg in assay [3] (carrageenin edema test in rats).

As for `CC(C(=O)O)c1ccc2c(c1)CC(C(C)C)C2` (stereo not drawn) [2-(2-Isopropylindan-5-yl)propionic acid], the ED50 turned out to be 1.8 mg/kg in assay [1] (setting [4]), 2.5 mg/kg in assay [2] (thermal pain test in rats) and 7.1 mg/kg in assay [3] (carrageenin edema test in rats).

In the case of `CC(=O)Oc1ccccc1C(=O)O` [Acetylsalicylic acid, reference compound], the ED50 is 194 mg/kg in assay [1], 81 mg/kg in assay [2] and 133 mg/kg in assay [3].
